From ChEMBL document CHEMBL1240344, “Phage-encoded combinatorial chemical libraries based on bicyclic peptides” (Nat Chem Biol, 2009) come the findings set out here.

Starred links: 1 amine or outer side, 2 acyl side, 3 side chain; linkers in the order of their positions; H or OH if unused. Positions of bridges follow the written chain, without caps; N, C: chain ends. Residues, ends and D or L forms follow the SMILES beside them. TBMB = c1c(C[*:1])cc(C[*:3])cc1C[*:2]

As a reminder, the IC50 is the concentration that inhibits the measured activity by half. Lower therefore signals higher potency.

The target of the assay is Plasma kallikrein (Homo sapiens, UniProt P03952). Kind of assay: Inhibition of human plasma kallikrein using Z-Phe-Arg-AMC substrate after 30 mins by spectrophotometric assay.
Plasma kallikrein, sequence (P03952 20-390 limits assumed): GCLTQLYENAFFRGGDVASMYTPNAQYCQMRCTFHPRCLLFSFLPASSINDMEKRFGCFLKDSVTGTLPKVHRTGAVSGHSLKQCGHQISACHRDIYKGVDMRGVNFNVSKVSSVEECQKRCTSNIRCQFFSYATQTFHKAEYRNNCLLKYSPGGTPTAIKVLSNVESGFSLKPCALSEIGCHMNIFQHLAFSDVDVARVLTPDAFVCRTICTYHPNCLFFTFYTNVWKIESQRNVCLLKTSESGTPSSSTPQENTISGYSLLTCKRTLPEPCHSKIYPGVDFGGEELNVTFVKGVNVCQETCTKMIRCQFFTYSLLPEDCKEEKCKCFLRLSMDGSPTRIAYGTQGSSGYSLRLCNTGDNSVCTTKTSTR
Plasma kallikrein, sequence (P03952 391-638 limits assumed): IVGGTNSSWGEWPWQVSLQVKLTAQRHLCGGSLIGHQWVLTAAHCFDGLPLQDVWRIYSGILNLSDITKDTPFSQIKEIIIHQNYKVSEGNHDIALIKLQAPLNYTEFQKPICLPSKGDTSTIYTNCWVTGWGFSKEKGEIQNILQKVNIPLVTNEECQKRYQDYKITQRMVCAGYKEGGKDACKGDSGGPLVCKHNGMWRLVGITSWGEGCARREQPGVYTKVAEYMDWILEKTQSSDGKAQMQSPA
`CC(C)[C@@H]1NC(=O)[C@@H](NC(=O)[C@H](C)N)CSCc2cc3cc(c2)CSC[C@@H](C(=O)NCC(N)=O)NC(=O)[C@H](C(C)O)NC(=O)[C@H](C(C)C)NC(=O)[C@H](Cc2c[nH]c4ccccc24)NC(=O)[C@H](CC(N)=O)NC(=O)[C@H](C(C)C)NC(=O)[C@H](CCCNC(=N)N)NC(=O)[C@H](CSC3)NC(=O)[C@H](Cc2ccc(O)cc2)NC(=O)[C@H](CC(N)=O)NC(=O)[C@H](Cc2cnc[nH]2)NC1=O` (single isomer, unassigned) yielded an IC50 of 1800 nM.
The result for `CSCC[C@H](NC(=O)[C@H](CC(C)C)NC(=O)[C@H](CC(=O)O)NC(=O)[C@H](CCC(=O)O)NC(=O)[C@H](Cc1ccc(O)cc1)NC(=O)[C@H](CS)NC(=O)[C@H](C)NC(=O)[C@@H](NC(=O)[C@H](CCCN=C(N)N)NC(=O)[C@H](Cc1c[nH]c2ccccc12)NC(=O)[C@@H]1CCCN1C(=O)[C@H](C)NC(=O)[C@H](CS)NC(=O)[C@H](C)N)[C@@H](C)O)C(=O)N[C@@H](Cc1c[nH]c2ccccc12)C(=O)N[C@@H](CS)C(=O)NCC(N)=O` (H-ACAPWRTACYEDLMWCG-NH2) reads 5710 nM; that for `CC(C)[C@@H]1NC(=O)[C@H](CCCNC(=N)N)NC(=O)[C@@H]2CSCc3cc(cc(c3)CSC[C@@H](C(=O)NCC(N)=O)NC(=O)[C@@H]3CCCN3C(=O)[C@H]([C@H](C)O)NC(=O)[C@H](Cc3c[nH]c4ccccc34)NC(=O)[C@H](CC(N)=O)NC1=O)CSC[C@H](NC(=O)[C@H](C)N)C(=O)NCC(=O)N[C@@H]([C@H](C)O)C(=O)NCC(=O)N[C@@H](CCC(=O)O)C(=O)NCC(=O)N[C@@H](CCCNC(=N)N)C(=O)N2`, 39.1 nM; that for `CC(C)C[C@@H]1NC(=O)[C@H](Cc2c[nH]c3ccccc23)NC(=O)[C@H](CCC(=O)O)NC(=O)[C@H](CC(=O)O)NC(=O)[C@H](C(C)C)NC(=O)[C@@H]2CCCN2C(=O)[C@@H]2CSCc3cc(cc(c3)CSC[C@@H](C(=O)NCC(N)=O)NC1=O)CSC[C@H](NC(=O)[C@H](C)N)C(=O)N[C@@H](CO)C(=O)N[C@@H](CC(=O)O)C(=O)N[C@@H](CCCNC(=N)N)C(=O)N[C@@H](Cc1ccccc1)C(=O)N[C@@H](CCCNC(=N)N)C(=O)N[C@@H](CC(N)=O)C(=O)N2` (H-ACSDRFRNCPVDEWLCG-NH2; linker 2-9-16 via TBMB), 30 nM.
Compound `CC(C)[C@@H]1NC(=O)[C@H](CCCNC(=N)N)NC(=O)[C@@H]2CSCc3cc(cc(c3)CSC[C@@H](C(=O)NCC(N)=O)NC(=O)[C@H](CCCCN)NC(=O)CNC(=O)[C@H](Cc3ccccc3)NC(=O)[C@H](CC(N)=O)NC1=O)CSC[C@H](NC(=O)[C@H](C)N)C(=O)N[C@@H](Cc1c[nH]c3ccccc13)C(=O)N[C@@H](CCC(N)=O)C(=O)N[C@@H](C(C)C)C(=O)N[C@@H](CCC(N)=O)C(=O)N[C@@H](C(C)C)C(=O)N[C@@H](CC(N)=O)C(=O)N2` (H-ACWQVQVNCRVNFGKCG-NH2; linker 2-9-16 via TBMB) showed an IC50 of 800 nM.
To `CC(C)C[C@@H]1NC(=O)[C@H](C)NC(=O)[C@H](CCC(=O)O)NC(=O)[C@H](CC(=O)O)NC(=O)[C@H](C(C)C)NC(=O)[C@@H]2CCCN2C(=O)[C@@H]2CSCc3cc(cc(c3)CSC[C@@H](C(=O)NCC(N)=O)NC1=O)CSC[C@H](NC(=O)[C@H](C)N)C(=O)N[C@@H](CO)C(=O)N[C@@H](CC(=O)O)C(=O)N[C@@H](CCCNC(=N)N)C(=O)N[C@@H](Cc1ccccc1)C(=O)N[C@@H](CCCNC(=N)N)C(=O)N[C@@H](CC(N)=O)C(=O)N2` (H-ACSDRFRNCPVDEALCG-NH2; linker 2-9-16 via TBMB) belongs 20 nM.
As for `CC(C)C[C@@H]1NC(=O)[C@@H]2CCCN2C(=O)[C@@H]2CSCc3cc(cc(c3)CSC[C@@H](C(=O)NCC(N)=O)NC(=O)[C@H](C(C)O)NC(=O)CNC(=O)[C@H](CO)NC(=O)[C@H](Cc3c[nH]c4ccccc34)NC1=O)CSC[C@H](NC(=O)[C@H](C)N)C(=O)N[C@@H](CO)C(=O)N[C@@H](CC(=O)O)C(=O)N[C@@H](CCCNC(=N)N)C(=O)N[C@@H](Cc1ccccc1)C(=O)N[C@@H](CCCNC(=N)N)C(=O)N[C@@H](CC(N)=O)C(=O)N2` (single isomer, unassigned), the IC50 was 28.6 nM.
To `CC[C@H](C)[C@@H]1NC(=O)[C@H](CC(N)=O)NC(=O)[C@H](CC(N)=O)NC(=O)[C@H](C(C)C)NC(=O)[C@H](CCCNC(=N)N)NC(=O)[C@@H]2CSCc3cc(cc(c3)CSC[C@@H](C(=O)NCC(N)=O)NC(=O)[C@H](CO)NC1=O)CSC[C@H](NC(=O)[C@H](C)N)C(=O)NCC(=O)NCC(=O)N[C@@H](CC(N)=O)C(=O)N[C@@H](CO)C(=O)N[C@@H](CC(=O)O)C(=O)N[C@@H](CCCNC(=N)N)C(=O)N2` (H-ACGGNSDRCRVNNISCG-NH2; linker 2-9-16 via TBMB) belongs 2000 nM; to `CC(C)[C@@H]1NC(=O)[C@@H]2CCCN2C(=O)[C@@H]2CSCc3cc(cc(c3)CSC[C@@H](C(=O)NCC(N)=O)NC(=O)[C@H](C)NC(=O)[C@H](CO)NC(=O)[C@H](CCC(=O)O)NC(=O)[C@H](CO)NC1=O)CSC[C@H](NC(=O)[C@H](C)N)C(=O)N[C@@H](CO)C(=O)N[C@@H](CC(=O)O)C(=O)N[C@@H](CCCNC(=N)N)C(=O)N[C@@H](Cc1ccccc1)C(=O)N[C@@H](CCCNC(=N)N)C(=O)N[C@@H](CC(N)=O)C(=O)N2` (H-ACSDRFRNCPVSESACG-NH2; linker 2-9-16 via TBMB), 50 nM.
The result for `CC(C)C[C@@H]1NC(=O)[C@H]([C@@H](C)O)NC(=O)[C@H](Cc2ccc(O)cc2)NC(=O)[C@@H]2CCCN2C(=O)[C@@H]2CSCc3cc(cc(c3)CSC[C@@H](C(=O)NCC(N)=O)NC(=O)[C@H](CC(=O)O)NC(=O)[C@H](Cc3cnc[nH]3)NC1=O)CSC[C@H](NC(=O)[C@H](C)N)C(=O)N[C@@H](CO)C(=O)N[C@@H](CC(=O)O)C(=O)N[C@@H](CCCNC(=N)N)C(=O)N[C@@H](Cc1ccccc1)C(=O)N[C@@H](CCCNC(=N)N)C(=O)N[C@@H](CC(N)=O)C(=O)N2` (H-ACSDRFRNCPYTLHDCG-NH2; linker 2-9-16 via TBMB) reads 30 nM.
The result for `CC[C@H](C)[C@@H]1NC(=O)[C@H](CCC(=O)O)NC(=O)[C@H]([C@@H](C)CC)NC(=O)[C@@H]2CCCN2C(=O)[C@@H]2CSCc3cc(cc(c3)CSC[C@@H](C(=O)NCC(N)=O)NC(=O)[C@@H]3CCCN3C(=O)[C@H](Cc3ccccc3)NC1=O)CSC[C@H](NC(=O)[C@H](C)N)C(=O)N[C@@H](CO)C(=O)N[C@@H]([C@H](C)O)C(=O)N[C@@H](CCC(=O)O)C(=O)N[C@@H](CCCNC(=N)N)C(=O)N[C@@H](CCCNC(=N)N)C(=O)N[C@@H](Cc1ccc(O)cc1)C(=O)N2` reads 33 nM; that for `CC(C)[C@H](NC(=O)[C@H](CCCN=C(N)N)NC(=O)[C@H](CS)NC(=O)[C@H](CCCN=C(N)N)NC(=O)CNC(=O)[C@H](CCC(=O)O)NC(=O)CNC(=O)[C@@H](NC(=O)CNC(=O)[C@H](CS)NC(=O)[C@H](C)N)[C@@H](C)O)C(=O)N[C@@H](CC(N)=O)C(=O)N[C@@H](Cc1c[nH]c2ccccc12)C(=O)N[C@H](C(=O)N1CCC[C@H]1C(=O)N[C@@H](CS)C(=O)NCC(N)=O)[C@@H](C)O`, above 10000 nM.
In turn, `CSCC[C@@H]1NC(=O)[C@H](CO)NC(=O)[C@H](Cc2c[nH]c3ccccc23)NC(=O)[C@@H]2CCCN2C(=O)[C@@H]2CSCc3cc(cc(c3)CSC[C@H](NC(=O)[C@H](C)N)C(=O)N[C@@H](CC(=O)O)C(=O)N[C@@H](CO)C(=O)N[C@@H](CCCNC(=N)N)C(=O)N[C@@H](Cc3ccccc3)C(=O)N[C@@H](CCCNC(=N)N)C(=O)N[C@@H](CC(N)=O)C(=O)N2)CSC[C@@H](C(=O)NCC(N)=O)NC(=O)CNC(=O)[C@H](CO)NC1=O` (H-ACDSRFRNCPWSMSGCG-NH2; linker 2-9-16 via TBMB) gave an IC50 of 1500 nM.
